# Assay results reported in patent US20260176253A1 (priority 2021, published 2026).
# What was measured:
# 5-HT2A [1] = biological target: T1, 5-HT2A (Homo sapiens, UniProt P28223); test: Serotonin 5-HT2A in vitro radioligand binding competition assay ([3H]-DOI); parameters: purchased Epics Therapeutics S. A. (Belgium), contract assay FAST-0505B; host or cells: membrane extracts; conditions: [3H]-DOI competition, membrane extracts; read-out: 5HT2A R[…] ACTIVITY
# Protocol: Serotonin 5-HT2AIn Vitro Radioligand Binding Competition Assay. The 5-HT2A radioligand binding competition assay was performed at Epics Therapeutics S. A. (Belgium, FAST-0505B) using conventional methods. Briefly, competition binding is performed in duplicate in the wells of a 96 well plate (Master Block, Greiner, 786201) containing binding buffer (optimized for each receptor), membrane extracts (amount of protein/well optimized for each receptor), radiotracer [3H]-DOI (final concentration optimized for each receptor) and test compound. Nonspecific binding was determined by co-incubation with 200-fold excess of cold competitor. The samples were incubated in a final volume of 0.1 ml at a temperature and for a duration optimized for each receptor and then filtered over filter plates. Filters were washed six times with 0.5 ml of ice-cold washing buffer (optimized for each receptor) and 50 µl of Microscint 20 (Packard) were added in each well. The plates were incubated 15 min on an orbital shaker and then counted with a TopCount™ for 1 min/well.
# rat cortical neurons = test: Neurite outgrowth in primary neuronal cultures assay; format: cell-based; parameters: key: A: Statistically significant mean increase as a percent of DMSO control at 10 μM or less; B: No statistically significant mean increase as a percent of DMSO control at 10 μM or less; conditions: 72h, vs DMSO control, 10 μM or less
# Description: Neurite Outgrowth Assay. Neurite Outgrowth in Primary Neuronal Cultures Assay. Changes in the pattern of neurite outgrowth have been implicated in psychiatric and neurodegenerative disorders as well as traumatic injuries. The discovery of new compounds that can positively affect neuritogenesis are important for developing new therapeutics for neurological diseases. Measurement of neurite outgrowth of rat cortical neurons using an automated image-based assay was used to determine the neuroplastic effects of the compounds of the present disclosure. The neurite outgrowth assay was performed at Neurofit SAS (France) as described below.
# Pregnant Wistar rats (Janvier; France) were used for the study. They were delivered 6 days before their use. Upon arrival at Neurofit animal facility, they were housed one per cage and maintained in a room with controlled temperature (21-22° C.) and a reversed light-dark cycle (12 h/12h; lights on: 17:30-05:30; lights off: 05:30-17:30) with food and water available ad libitum.
# Female Wistar rats of 17 days gestation were killed by cervical dislocation and the fetuses were removed from the uterus. Their brains were placed in ice-cold medium of Leibovitz (L15, Gibco, Fisher bioblock, France). Cortices were dissected and meninges were carefully removed. The cortical neurons were dissociated by trypsinization for 30 min at 37° C. (trypsin-EDTA, Gibco) in presence of 0.1 mg/ml DNAse I (Roche, France). The reaction was stopped by addition of Dulbecco's Modified Eagle Medium (DMEM; Gibco) with 10% of fetal bovine serum (FBS; Gibco). The suspension was triturated with a 10-ml pipette and using a needle syringe 21G and centrifuged at 350×g for 10 min at room temperature. The pellet of dissociated cells was resuspended in a medium consisting of Neurobasal (Gibco) supplemented with 2% B27 supplement (Gibco), 0.5 mM L-Glutamine (Gibco), an antibiotic-antimicotic mixture. Viable cells were counted in a Neubauer cytometer using the trypan blue exclusion test (Sigma). Cells were seeded at a density of 10000 cells per well in 96-well plate (Costar) precoated with poly-L-lysine. Test compound at different concentrations were added to the cultures. Donepezil (positive control) was tested at 250 nM.
# After 72h (3 days) of plating, cultures were fixed with paraformaldehyde in PBS (4%, Sigma) for 30 min at 4° C. Then, cells were successively permeabilized with 0.1% Triton X100 for 30 min, saturated with PBS containing 3% of BSA and were incubated 1 h with anti-beta III tubulin antibody (Sigma) at 1/10 000 in PBS containing 0.5% of BSA. Cells were washed three times with PBS containing 0.5% of BSA, and they were incubated 1 h with goat anti-mouse antibody coupled with AF488 (Invitrogen A11001) diluted at 1/1000 in PBS containing 0.5% of BSA. Finally, nuclei were staining with DAPI 1 mg/ml at 1/1000 in PBS containing 0.5% of BSA. After rinsing with PBS, the plate was filmed and neurite networks were examined and analyzed using High-Content Screening (CellInsight, Thermo Scientific). The average number of neurites per neuron and the average total length of neurites per neuron were the main parameters analyzed. Analysis of data was performed using analysis of variance (ANOVA). The Fisher's Protected Least Significant Difference test was used for multiple comparisons. A p value ≤0.05 was considered significant. The software used is StatView 5.0 from SAS Institut.
# 5-HT2A [2] = biological target: T1, 5-HT2A; test: Serotonin 5-HT2A in vitro cellular IPOne agonism assay (HTRF); format: cell-based; parameters: host or cells: CHO-K1; conditions: CHO-K1 cells, 60 min
# Protocol: (§1) Serotonin 5-HT2AIn Vitro Cellular IPOne Agonism Assay. The 5-HT2AIPOne HTRF assay was performed at Epics Therapeutics S. A. (Belgium, FAST-0505I) using conventional methods. Briefly, CHO—K1 cells expressing human recombinant 5-HT2A receptor grown to mid-log phase in culture media without antibiotics were detached with PBS-EDTA, centrifuged, and resuspended in medium without antibiotics buffer. 20,000 cells were distributed in a 96 well plate and incubated overnight at 37° C. with 5% Co2.
# For agonist testing, the medium was removed and 20 μl of assay buffer plus 20 μl of test compound or reference agonist were added in each well. The plate was incubated for 60 min. at 37° C. with 5% CO2.
# (§2) After addition of the lysis buffer containing IP1-d2 and anti-IP1 cryptate detection reagents, plates were incubated 1-hour at room temperature, and fluorescence ratios were measured according to the manufacturer specification, with the HTRF kit.
# 5-HT2A [3] = biological target: T1, 5-HT2A; test: Serotonin 5-HT2A in vitro cellular IPOne antagonism assay (HTRF); format: cell-based; parameters: host or cells: CHO-K1; conditions: CHO-K1 cells, reference agonist a-Me-5HT
# Protocol: as §1, with “Antagonism” for “Agonism”, “FAST-0505I) in antagonism mode” for “FAST-0505I)”
# For antagonist testing, a reference agonist a-Me-5HT was added and fluorescence signal monitored for several minutes, followed by addition of 20 μl of assay buffer plus 20 μl of test compound or reference antagonist ketanserin, in each well. The plate was incubated for 60 min. at 37° C. with 5% CO2.
# as §2
# T1 sequence (P28223 whole entry): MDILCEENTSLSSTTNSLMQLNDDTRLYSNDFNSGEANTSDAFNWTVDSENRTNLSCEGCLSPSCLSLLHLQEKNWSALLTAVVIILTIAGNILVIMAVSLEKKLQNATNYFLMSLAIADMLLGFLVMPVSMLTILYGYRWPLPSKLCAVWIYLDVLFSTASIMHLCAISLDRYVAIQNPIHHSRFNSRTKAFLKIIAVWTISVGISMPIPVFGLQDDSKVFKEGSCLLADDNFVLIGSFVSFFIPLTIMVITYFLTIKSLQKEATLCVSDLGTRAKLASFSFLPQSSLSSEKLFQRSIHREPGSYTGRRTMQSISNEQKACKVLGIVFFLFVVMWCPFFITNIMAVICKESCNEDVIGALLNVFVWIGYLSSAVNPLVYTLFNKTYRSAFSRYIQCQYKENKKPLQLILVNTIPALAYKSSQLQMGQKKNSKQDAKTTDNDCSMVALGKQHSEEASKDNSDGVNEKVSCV
Structure (SMILES),IC50 (5-HT2A [1]) [µM],INCREASE IN NEURITE BRANCHING (rat cortical neurons),INCREASE IN NEURITE LENGTH (rat cortical neurons),INCREASE IN NEURITE NUMBER (rat cortical neurons),EC50 (5-HT2A [2]) [µM],IC50 (5-HT2A [3]) [µM]
"COc1ccc2c3c([nH]c2c1)CCN1CCCC1C3 (centres unmarked) [Compound 1, 9-methoxy-1,2,3,5,6,7,12,12a-octahydropyrrolo[1′,2′:1,7]azepino[4,5-b]indole]",1 to 10,B,B,B,> 10,–
"COc1ccc2c3c([nH]c2c1)CC1CCCN1CC3 (centres unmarked) [Compound 2, 9-methoxy-1,2,3,5,6,11,12,12a-octahydropyrrolo[1′,2′:1,2]azepino[4,5-b]indole]",> 10,A,A,B,> 10,–
"Cn1c2c(c3ccccc31)CCN1CCCC1C2 (centres unmarked) [Compound 3, 11-methyl-1,2,3,5,6,11,12,12a-octahydropyrrolo[1′,2′:1,2]azepino[4,5-b]indole]",0.101 to 1,B,A,B,1 to 10,0.101 to 1
"c1ccc2c3c([nH]c2c1)CC1CCCN1CC3 (centres unmarked) [Compound 4, 1,2,3,5,6,11,12,12a-octahydropyrrolo[1′,2′;1,2]azepino[4,5-b]indole]",0.101 to 1,A,A,A,0.101 to 1,0.101 to 1
"COc1cccc2[nH]c3c(c12)CC1CCCN1CC3 (centres unmarked) [Compound 5, 11-methoxy-1,2,3,5,6,7,12,12a-octahydropyrrolo[1′,2′:1,7]azepino[4,5-b]indole]",1 to 10,B,A,B,1 to 10,–
"Cn1c2c(c3ccccc31)CC1CCCN1CC2 (centres unmarked) [Compound 6, 7-methyl-1,2,3,5,6,7,12,12a-octahydropyrrolo[1′,2′:1,7]azepino[4,5-b]indole]",0.101 to 1,B,A,B,> 10,0.101 to 1
"c1ccc2c3c([nH]c2c1)CCN1CCCC1C3 (centres unmarked) [Compound 7, 1,2,3,5,6,7,12,12a-octahydropyrrolo[1′,2′:1,7]azepino[4,5-b]indole]",0.101 to 1,A,A,A,1 to 10,0.101 to 1
"FC(F)(F)c1ccc2c3c([nH]c2c1)CC1CCCN1CC3 (centres unmarked) [Compound 12, 9-(trifluoromethyl)-1,2,3,5,6,11,12,12a-octahydropyrrolo[1′,2′:1,2]azepino[4,5-b]indole]",1 to 10,A,A,B,> 10,–
"FC(F)(F)Oc1ccc2c3c([nH]c2c1)CC1CCCN1CC3 (centres unmarked) [Compound 13, 9-(trifluoromethoxy)-1,2,3,5,6,11,12,12a-octahydropyrrolo[1′,2′;1,2]azepino[4,5-b]indole]",1 to 10,B,A,B,> 10,0.101 to 1
"COc1ccc2c3c([nH]c2c1)C[C@@H]1CCCN1CC3 [Compound 17, (S)-9-methoxy-1,2,3,5,6,11,12,12a-octahydropyrrolo[1′,2′:1,2]azepino[4,5-b]indole]",> 10,A,A,A,> 10,> 10
"COc1ccc2c3c([nH]c2c1)C[C@H]1CCCN1CC3 [Compound 18, (R)-9-methoxy-1,2,3,5,6,11,12,12a-octahydropyrrolo[1′,2′:1,2]azepino[4,5-b]indole]",> 10,A,A,A,> 10,0.101 to 1
"c1ccc2c3c([nH]c2c1)C[C@@H]1CCCN1CC3 [Compound 19, (S)-1,2,3,5,6,11,12,12a-octahydropyrrolo[1′,2′:1,2]azepino[4,5-b]indole]",0.101 to 1,A,A,A,0.101 to 1,0.101 to 1
"c1ccc2c3c([nH]c2c1)C[C@H]1CCCN1CC3 [Compound 20, (R)-1,2,3,5,6,11,12,12a-octahydropyrrolo[1′,2′:1,2]azepino[4,5-b]indole]",0.101 to 1,A,A,A,0.101 to 1,1 to 10
"FC(F)(F)c1cccc2[nH]c3c(c12)CCN1CCCC1C3 (centres unmarked) [Compound 21, 7-(trifluoromethyl)-1,2,3,5,6,11,12,12a-octahydropyrrolo[1′,2′:1,2]azepino[4,5-b]indole]",1 to 10,A,A,B,> 10,0.101 to 1
"c1ccc2c3c([nH]c2c1)CCN1CCC[C@@H]1C3 [Compound 22, (R)-1,2,3,5,6,7,12,12a-octahydropyrrolo[1′,2′:1,7]azepino[4,5-b]indole]",1 to 10,A,A,A,0.101 to 1,0.101 to 1
